Source: PubChem BioAssay (NCI)
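Briefly, cells in 96-well plates were exposed to five compound concentrations for 48 h, and endpoints were estimated by linear interpolation. TGI denotes the concentration required for complete inhibition of growth.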

Columns and labels:
Experiment in all cases: growth of human tumour cells (NCI), 48 h
COLO 205 colon = system: COLO 205 colon
UACC-257 melanoma = system: UACC-257 melanoma
HL-60(TB) leukemia = system: HL-60(TB) leukemia
HCT-15 colon = system: HCT-15 colon
SK-MEL-5 melanoma = system: SK-MEL-5 melanoma
SW-620 colon = system: SW-620 colon
NCI-H522 lung = system: NCI-H522 lung
NCI-H23 lung = system: NCI-H23 lung
MDA-MB-435 = system: MDA-MB-435
OVCAR-8 ovarian = system: OVCAR-8 ovarian
U251 CNS = system: U251 CNS
OVCAR-3 ovarian = system: OVCAR-3 ovarian
NCI/ADR-RES ovarian = system: NCI/ADR-RES ovarian
NCI-H460 lung = system: NCI-H460 lung
UACC-62 melanoma = system: UACC-62 melanoma
OVCAR-4 ovarian = system: OVCAR-4 ovarian
MCF7 breast = system: MCF7 breast
786-0 renal = system: 786-0 renal
SNB-19 CNS = system: SNB-19 CNS

SMILES	TGI (COLO 205 colon)	TGI (UACC-257 melanoma)	TGI (HL-60(TB) leukemia)	TGI (HCT-15 colon)	TGI (SK-MEL-5 melanoma)	TGI (SW-620 colon)	TGI (NCI-H522 lung)	TGI (NCI-H23 lung)	TGI (MDA-MB-435)	TGI (OVCAR-8 ovarian)	TGI (U251 CNS)	TGI (OVCAR-3 ovarian)	TGI (NCI/ADR-RES ovarian)	TGI (NCI-H460 lung)	TGI (UACC-62 melanoma)	TGI (OVCAR-4 ovarian)	TGI (MCF7 breast)	TGI (786-0 renal)	TGI (SNB-19 CNS)
COC(=O)c1ccc2c(c1)CC1(C2)Cc2cc3c(c(C(=O)OC)c2C1)CCCC3 (stereo not drawn)	> 100 µM	> 100 µM	> 100 µM	> 100 µM	42 µM	> 100 µM	> 100 µM	> 100 µM	> 100 µM	> 100 µM	> 100 µM	> 100 µM	> 100 µM	> 100 µM	> 100 µM	> 100 µM	> 100 µM	> 100 µM	
COc1ccc(NC(=O)CC(=O)n2nc(C)c(N=Nc3ccc(C)c(C)c3)c2C)cc1	> 100 µM		> 100 µM		> 100 µM	> 100 µM	> 100 µM	> 100 µM	> 100 µM	> 100 µM	> 100 µM	> 100 µM	> 100 µM	> 100 µM	> 100 µM	> 100 µM	> 100 µM	> 100 µM	> 100 µM
NS(=O)(=O)c1ccc(NC(=O)c2cc([N+](=O)[O-])cc([N+](=O)[O-])c2)cc1	51.8 µM	32 µM	97.4 µM	> 100 µM	> 100 µM	> 100 µM		> 100 µM	35 µM	> 100 µM	> 100 µM	84.9 µM	> 100 µM	> 100 µM	54.2 µM	79.2 µM	53.9 µM	> 100 µM	> 100 µM
C[C@H](CCC1=NCCN1)[C@H]1CC[C@H]2[C@@H]3[C@H](O)C[C@@H]4C[C@H](O)CC[C@]4(C)[C@H]3CC[C@]12C	21.1 µM	28.3 µM		30.1 µM	27.3 µM	30.1 µM	28.5 µM	27.3 µM	26.7 µM	29 µM	26.5 µM	26.6 µM	> 100 µM	24.3 µM	23.5 µM	28.1 µM	28.5 µM	27.7 µM	26.1 µM
Cc1ccc(/C=C2\CN(C)CC3C(c4ccc(C)cc4)=C(C#N)C(=O)NC23)cc1 (stereo not drawn)	> 50 µM	> 50 µM		> 50 µM	> 50 µM	> 50 µM	> 50 µM	> 50 µM	> 50 µM	> 50 µM	> 50 µM	> 50 µM	> 50 µM	> 50 µM	> 50 µM	> 50 µM	> 50 µM	> 50 µM	> 50 µM
O=C(O)CCC(NC(=O)c1ccc(Nc2nc3ccccc3nc2C(=O)O)cc1)C(=O)O (stereo not drawn)	> 100 µM	> 100 µM	> 100 µM		> 100 µM		> 100 µM	> 100 µM	> 100 µM	> 100 µM	> 100 µM	> 100 µM	> 100 µM		> 100 µM	> 100 µM	> 100 µM	> 100 µM	> 100 µM
CCOC(=O)N1CCN(Cc2cc(=O)n3cc(C)ccc3n2)CC1	> 100 µM	> 100 µM	> 100 µM	> 100 µM		> 100 µM	> 100 µM	> 100 µM	> 100 µM	> 100 µM	> 100 µM	> 100 µM	> 100 µM	> 100 µM	> 100 µM	> 100 µM	> 100 µM	> 100 µM	> 100 µM
